Columns and labels:
mERβ1 = target: T1, mERβ1 (Oryzias latipes, UniProt A0ACM8PZQ7); experiment: Competitive ligand binding assay; parameters: species or system medaka; details: for RBA (%) mERβ1: ratio of IC50 of E2β to IC50 of competitor
T1 sequence (A0ACM8PZQ7 1-562): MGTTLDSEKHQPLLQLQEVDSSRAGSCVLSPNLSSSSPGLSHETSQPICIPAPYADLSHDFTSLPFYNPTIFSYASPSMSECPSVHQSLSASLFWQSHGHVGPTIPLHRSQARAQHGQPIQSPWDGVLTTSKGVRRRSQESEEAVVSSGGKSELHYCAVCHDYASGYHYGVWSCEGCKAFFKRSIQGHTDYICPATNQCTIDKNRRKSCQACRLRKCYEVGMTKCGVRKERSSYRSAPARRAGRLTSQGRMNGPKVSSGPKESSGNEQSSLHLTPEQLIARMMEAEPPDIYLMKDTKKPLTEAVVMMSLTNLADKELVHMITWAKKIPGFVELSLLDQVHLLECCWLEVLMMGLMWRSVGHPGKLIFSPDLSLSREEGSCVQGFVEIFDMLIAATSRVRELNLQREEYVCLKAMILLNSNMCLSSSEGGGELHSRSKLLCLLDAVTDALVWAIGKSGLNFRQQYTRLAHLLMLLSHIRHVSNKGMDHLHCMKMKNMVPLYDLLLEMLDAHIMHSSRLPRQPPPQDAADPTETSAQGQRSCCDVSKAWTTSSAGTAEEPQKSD

[1] = test system: hepatic gene expression in male Japanese medaka; experiment: Medaka 7-day waterborne exposure, hepatic gene expression by qPCR; format: in vivo, Japanese medaka (Oryzias latipes)
mERβ2 = target: T2, mERβ2 (Oryzias latipes, UniProt B1B6T4); experiment: Competitive ligand binding assay; parameters: species or system medaka; details: for RBA (%) mERβ2: ratio of IC50 of E2β to IC50 of competitor
T2 sequence (B1B6T4 1-542): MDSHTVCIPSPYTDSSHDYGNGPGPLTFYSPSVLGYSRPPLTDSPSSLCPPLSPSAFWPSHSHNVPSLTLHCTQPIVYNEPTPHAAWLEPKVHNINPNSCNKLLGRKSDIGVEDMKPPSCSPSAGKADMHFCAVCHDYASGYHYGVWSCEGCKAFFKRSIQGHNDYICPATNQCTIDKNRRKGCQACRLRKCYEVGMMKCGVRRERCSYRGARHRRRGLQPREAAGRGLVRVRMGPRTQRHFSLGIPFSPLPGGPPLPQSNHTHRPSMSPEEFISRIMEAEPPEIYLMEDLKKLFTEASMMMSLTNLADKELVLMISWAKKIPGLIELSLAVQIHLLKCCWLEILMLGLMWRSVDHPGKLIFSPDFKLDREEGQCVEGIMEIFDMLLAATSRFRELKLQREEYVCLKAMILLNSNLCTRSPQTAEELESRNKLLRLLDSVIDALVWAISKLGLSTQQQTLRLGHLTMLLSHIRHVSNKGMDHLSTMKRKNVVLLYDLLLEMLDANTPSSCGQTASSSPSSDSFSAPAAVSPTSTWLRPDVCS

hERα and hERβ = experiment: T47D-KBluc estrogen screening assay, luciferase reporter; details: YES-calibrated stock solutions
mERα = target: T3, mERα (Oryzias latipes, UniProt P50241); experiment: biochemical; format: binding, medaka
T3 sequence (P50241 1-620): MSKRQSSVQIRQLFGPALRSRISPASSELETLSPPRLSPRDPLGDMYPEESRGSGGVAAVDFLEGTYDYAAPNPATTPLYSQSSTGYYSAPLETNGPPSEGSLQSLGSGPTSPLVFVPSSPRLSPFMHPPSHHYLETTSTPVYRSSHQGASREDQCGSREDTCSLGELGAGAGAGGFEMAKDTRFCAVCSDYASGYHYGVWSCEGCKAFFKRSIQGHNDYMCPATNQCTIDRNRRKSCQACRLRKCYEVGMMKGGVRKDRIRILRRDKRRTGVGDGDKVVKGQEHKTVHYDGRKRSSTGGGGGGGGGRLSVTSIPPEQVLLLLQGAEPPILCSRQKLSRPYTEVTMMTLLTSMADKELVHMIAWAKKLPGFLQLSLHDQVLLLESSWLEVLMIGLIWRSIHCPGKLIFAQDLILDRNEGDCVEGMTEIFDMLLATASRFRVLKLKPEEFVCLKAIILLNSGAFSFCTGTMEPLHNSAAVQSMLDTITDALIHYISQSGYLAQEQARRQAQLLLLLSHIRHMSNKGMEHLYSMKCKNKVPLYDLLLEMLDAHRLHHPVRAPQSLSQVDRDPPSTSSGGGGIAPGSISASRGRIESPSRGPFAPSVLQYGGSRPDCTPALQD

mERα, mERβ1, and mERβ2 = experiment: Ligand binding assays, comparison of affinity across mER subtypes; parameters: species or system medaka; details: from IC50 of competitive binding
[2] = male medaka liver, 7 days, YES-derived EEQ 0.64 nM, relative to negative control
[3] = liver of E2β-exposed male medaka, mERα expression as calibrator

Row | SMILES | IC50 (mERβ1) | RBA (%) mERβ1 (mERβ1) | mERα induction [1, 2] | IC50 (mERβ2) | RBA (%) mERβ2 (mERβ2) | more potent in the T47D-KBluc versus the YES (hERα and hERβ) | IC50 (mERα) | RBA (%) mERα (mERα; ratio of IC50 of E2β to IC50 of competitor) | higher affinity for mERβ1 versus mERβ2 (mERα, mERβ1, and mERβ2) | potency less in the T47D-KBluc versus the YES (hERα and hERβ) | mERα expression above mERβ1 [1, 3] | mERα expression above mERβ2 [1, 3] | Chg-H gene induction [1, 2] | Chg-Hm gene induction [1, 2] | Chg-L gene induction [1, 2] | Vtg-1 gene induction [1, 2] | Vtg-2 gene induction [1, 2]
1 | C[C@]12CC[C@@H]3c4ccc(O)cc4CC[C@H]3[C@@H]1CCC2=O [E1, estrone] | 14.4 nM | 12.6% | 56 fold | 14.4 nM | 14.6% | slightly more potent | 8.4 nM | 36.7% | – | – | – | – | – | – | – | – | –
2 | C[C@]12CC[C@@H]3c4ccc(O)cc4CC[C@H]3[C@@H]1C[C@@H](O)[C@@H]2O [E3, estriol] | 18.1 nM | 10.0% | 67 fold | 34.2 nM | 6.1% | approximately 10 fold | – | – | 1.9 fold | – | – | – | – | – | – | – | –
3 | C[C@]12CC[C@@H]3c4ccc(O)cc4CC[C@H]3[C@@H]1CC[C@H]2O [E2α, 17α-estradiol] | 18.8 nM | 9.6% | 24 fold | 31.1 nM | 6.8% | – | – | – | – | 3.3 fold | – | – | – | – | – | – | –
4 | C[C@]12CC[C@@H]3c4ccc(O)cc4CC[C@H]3[C@@H]1CC[C@@H]2O [E2β, 17β-estradiol] | 1.8 nM | 100.0% | 72 fold | 2.1 nM | 100.0% | – | – | – | – | – | 23 fold | 5 fold | 12,730 fold | 3,796 fold | 324 fold | 27,004 fold | 73,735 fold

Reference: PMC4014147 (Environmental Science & Technology, 2014)
